PubChem BioAssay (NCI)
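Growth conditions: 96-well plates. Treatment: test compound, 48 hours, 5 concentrations. Analysis: linear interpolation between bracketing concentrations; unreached endpoints set to highest concentration. The concentration for full growth arrest is given as TGI.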

Key:
Experiment in all cases: NCI anticancer screen, dose series, 48 h
SF-295 CNS = test system: SF-295 CNS
MOLT-4 leukemia = test system: MOLT-4 leukemia
HOP-92 NSCLC = test system: HOP-92 NSCLC
OVCAR-8 ovarian = test system: OVCAR-8 ovarian
UACC-257 melanoma = test system: UACC-257 melanoma
786-0 renal = test system: 786-0 renal
TK-10 renal = test system: TK-10 renal
MDA-MB-435 = test system: MDA-MB-435
LOX IMVI melanoma = test system: LOX IMVI melanoma
U251 CNS = test system: U251 CNS
SF-539 CNS = test system: SF-539 CNS

| SMILES | TGI (SF-295 CNS) [µM] | TGI (MOLT-4 leukemia) [µM] | TGI (HOP-92 NSCLC) [µM] | TGI (OVCAR-8 ovarian) [µM] | TGI (UACC-257 melanoma) [µM] | TGI (786-0 renal) [µM] | TGI (TK-10 renal) [µM] | TGI (MDA-MB-435) [µM] | TGI (LOX IMVI melanoma) [µM] | TGI (U251 CNS) [µM] | TGI (SF-539 CNS) [µM] |
| --- | --- | --- | --- | --- | --- | --- | --- | --- | --- | --- | --- |
| CCc1n[nH]c(=O)n1CCCCCCCCn1c(CC)n[nH]c1=O | > 100 | > 100 | > 100 | > 100 | > 100 | > 100 | > 100 | > 100 | > 100 | > 100 | > 100 |
| CC1(C)CCN2C(=O)C34CCCC3CC21S4 (stereo unspecified) | > 100 | > 100 | > 100 | > 100 | > 100 | > 100 | > 100 | > 100 | > 100 | > 100 | > 100 |
| FC(F)(F)c1ccccc1C1SCC2=Nc3ccccc3CN21 (stereo unspecified) | 26.2 | > 100 | 60.9 | 30.5 | 36.6 | 24.2 | 29.9 | 93.1 | 28.4 | > 100 | 22.6 |
| CNC(=O)c1n[nH]n(C2CCCCC2)c1=S | > 100 | > 100 | > 100 | > 100 | > 100 | > 100 |  | > 100 | > 100 | > 100 | > 100 |
| Cn1c(=O)c2[nH]c(N=O)nc2n(C)c1=O | > 100 | > 100 |  | > 100 | > 100 | > 100 | > 100 | > 100 | > 100 | > 100 | > 100 |
| CCOC(=O)c1c[nH]c(C(=O)OCC)c1-c1cccn1-c1ccccc1 | 52.3 | 53 | > 100 | 59.6 | > 100 | > 100 | > 100 | > 100 | 32.4 | 48 |  |
| CC(C)C1CNC(=O)C2(C=NC(C(C)C)CNC(=O)C3(C=N1)CCCO3)CCCO2 (stereo unspecified) | > 10 | > 10 | > 10 | > 10 | > 10 | > 10 | > 10 | > 10 |  | > 10 | > 10 |
| Cc1ccc(S(=O)c2cccs2)cc1 (stereo unspecified) | > 100 | > 100 | > 100 | > 100 | > 100 | > 100 | > 100 | > 100 |  | > 100 | > 100 |
| COc1ccc(-n2c(CCC(=O)O)nc3c2C(=O)c2ccccc2C3=O)cc1 | > 100 | > 100 |  | > 100 | > 100 | > 100 | > 100 | > 100 | > 100 | > 100 | > 100 |
| O=C(Nc1ccc([N+](=O)[O-])cc1)Nn1cnnc1 | 63.4 | > 100 | > 100 | 67 | > 100 |  | > 100 | > 100 | > 100 | > 100 | 73.9 |
| Brc1ccc(C2C3CSc4ccccc4C3=NN2c2ccccc2)cc1 (stereo unspecified) |  | > 100 | > 100 | > 100 | 95.6 | > 100 | > 100 | > 100 | > 100 | > 100 | > 100 |
| COc1cc(OC2OC(CO)C(O)C(O)C2O)c2c(O)c3c(=O)cc(C)oc3cc2c1 (stereo unspecified) | > 100 | > 100 |  | > 100 | > 100 |  | > 100 | > 100 | > 100 | > 100 | > 100 |
| CC(C)(O)/C1=C/C=C/CCCCCCCCCC1 | > 100 | > 100 | > 100 | > 100 | > 100 |  | > 100 | > 100 | > 100 | > 100 |  |
| CC(CSC(=N)N)C(N)=O (stereo unspecified) | > 100 |  | > 100 | > 100 | > 100 | > 100 | > 100 | > 100 | > 100 | > 100 |  |
| CCOC1OC(CO)C(O)CC1n1ccc(=O)[nH]c1=O (stereo unspecified) | > 100 |  | > 100 | > 100 | > 100 | > 100 | > 100 | > 100 | > 100 | > 100 | > 100 |
| O=C/C(=C1/C=Cc2cc([N+](=O)[O-])ccc2S1)c1ccccc1 | > 100 | > 100 | > 100 |  | > 100 | > 100 | > 100 | > 100 | > 100 | > 100 | > 100 |
| C[N+](C)(CCCCCC[N+](C)(C)CCCN1C(=O)c2cccc3cccc(c23)C1=O)CCCN1C(=O)c2cccc3cccc(c23)C1=O | > 100 | > 100 | > 100 | > 100 | > 100 |  | > 100 | > 100 | > 100 | > 100 | > 100 |
| Nc1nc(NNc2cccc(F)c2)cc(=O)[nH]1 | > 100 | > 100 |  | > 100 | > 100 | 37.5 | > 100 | 64.9 | 43.2 | 42.9 | > 100 |
| O[C@]12C=C(c3nccc4c3[nH]c3ccccc34)[C@@H]3CCN(CCCC/C=C\CC1)C[C@@]31CC3/C=C\CCCCN3[C@H]12 (stereo partly specified) | 2.67 |  | 0.741 | 1.51 | 3.39 | 0.615 | 1.95 | 1.53 | 0.84 | 1.79 | 4.6 |
| CC(C)(C)OC(=O)NC1CCCC1C(=O)C1=CCCC1 (stereo unspecified) |  | > 100 | > 100 | > 100 | > 100 | > 100 |  | > 100 | > 100 | > 100 |  |
| CSc1ncnc2c1cnn2Cc1cn(COCCO)nn1 |  |  | > 100 |  | > 100 | > 100 | > 100 | 42.3 | > 100 | > 100 | > 100 |
